Experimental data published in patent US10526347B2, “3-(3H-imidazo[4,5-B]pyridin-2-yl)-1H-pyrazolo[3,4-B]pyridine and therapeutic uses thereof” (Samumed, LLC, priority 2014, dated 2020).

Tests used:
[1] = test system: primary human fibroblasts derived from IPF patients (LL29 cells); assay: Inhibition of the fibrotic process in TGF-β1 treated IPF patient fibroblasts (αSMA staining); format: cell-based; conditions: Fibroblast, 96 h, LL29 cells treated with TGF-β1 (20 ng/mL), 4 days, read-out: Inhibition of fibrosis EC50
From the text: The above synthesized compounds were screened using primary human fibroblasts (derived from IPF patients) treated with TGF-β1 to determine their ability to inhibit the fibrotic process.
Primary human fibroblasts derived from IPF patients (LL29 cells) [^1Xiaoqiu Liu, et. al., “Fibrotic Lung Fibroblasts Show Blunted Inhibition by cAMP Due to Deficient cAMP Response Element-Binding Protein Phosphorylation”, Journal of Pharmacology and Experimental Therapeutics (2005), 315(2), 678-687; ^2Watts, K. L., et. al., “RhoA signaling modulates cyclin D1 expression in human lung fibroblasts; implications for idiopathic pulmonary fibrosis”, Respiratory Research (2006), 7(1), 88] were obtained from American Type Culture Collection (ATCC) and expanded in F12 medium supplemented with 15% Fetal Bovine Serum and Penicillin/Streptomycin.
Each compound was dissolved in DMSO as a 10 mM stock and used to prepare compound source plates. Serial dilution (1:2, 11-point dose-response curves from 10 μM to 1.87 nM) and compound transfer was performed using the ECHO 550 (Labcyte, Sunnyvale, Calif.) into 384-well clear bottom assay plates (Greiner Bio-One) with appropriate DMSO backfill for a final DMSO concentration of 0.1%. LL29 cells were plated at 1,500 cells/well in 80 μl/well F12 medium supplemented with 1% Fetal Bovine Serum. One hour after addition of the cells, TGF-β1 (Peprotech; 20 ng/mL) was added to the plates to induce fibrosis (ref. 1 and 2 above). Wells treated with TGF-β1 and containing DMSO were used as controls. Cells were incubated at 37° C. and 5% CO2 for 4 days. Following incubation for 4 days, SYTOX green nucleic acid stain (Life Technologies [Thermo Fisher Scientific]) was added to the wells at a final concentration of 1 uM and incubated at room temperature for 30 min. Cells were then fixed using 4% formaldehyde (Electron Microscopy Sciences), washed 3 times with PBS followed by blocking and permeabilization using 3% Bovine Serum Albumin (BSA; Sigma) and 0.3% Triton X-100 (Sigma) in PBS. Cells were then stained with antibody specific to α-smooth muscle actin (αSMA; Abcam) (ref. 1 and 2 above) in 3% Bovine Serum Albumin (BSA; Sigma) and 0.3% Triton X-100 (Sigma) in PBS, and incubated overnight at 4° C. Cells were then washed 3 times with PBS, followed by incubation with Alexa Flor-647 conjugated secondary antibody (Life Technologies [Thermo Fisher Scientific]) and DAPI at room temperature for 1 hour. Cells were then washed 3 times with PBS and plates were sealed for imaging. αSMA staining was imaged by excitation at 630 nm and emission at 665 nm and quantified using the Compartmental Analysis program on the CellInsight CX5 (Thermo Scientific). Dead or apoptotic cells were excluded from analysis based on positive SYTOX green staining. % of total cells positive for αSMA were counted in each well and normalized to the average of 11 wells treated with TGF-β1 on the same plate using Dotmatics' Studies Software. The normalized averages (fold change over untreated) of 3 replicate wells for each compound concentration were used to create dose-responses curves and EC50 values were calculated using non-linear regression curve fit in the Dotmatics' Studies Software. The EC50 values are reported.

[2] = test system: Wnt activity (SW480 colon carcinoma cells stably expressing the Sp5-Luc reporter gene); assay: Sp5-Luc reporter gene screening assay for Wnt activity; format: cell-based; conditions: Homo sapiens
From the text: The screening assay for Wnt activity is described as follows. Reporter cell lines can be generated by stably transducing cancer cell lines (e.g., colon cancer) or primary cells (e.g., IEC-6 intestinal cells) with a lentiviral construct that includes a Wnt-responsive promoter driving expression of the firefly luciferase gene.
SW480 colon carcinoma cells were transduced with a lentiviral vector expressing luciferase with a human Sp5 promoter consisting of a sequence of eight TCF/LEF binding sites. SW480 cells stably expressing the Sp5-Luc reporter gene and a hygromycin resistance gene were selected by treatment with 150 μg/ml of hygromycin for 7 days. These stably transduced SW480 cells were expanded in cell culture and used for all further screening activities. For Sp5-Luc reporter gene assays, the cells were plated at 10,000 cells/well in 96-well plates with growth medium containing 10% fetal calf serum and incubated overnight at 37° C. and 5% CO2. Each compound was dissolved in DMSO as a 10 mM stock in standard j-vials and used to prepare compound source plates in dose-response format with 3-fold serial dilutions and a 10 mM top concentration. Compound transfer from serially diluted source plates to assay plates containing the cells was accomplished using a pintool (Multimek 96, Beckman equipped with V&P Scientific FP1S50H pins) based liquid handling protocol. This protocol used a slotted pin to transfer 50 nl of compound from a source plate well to an assay plate well containing 50 μl of cells in growth medium. […] Control wells received 50 nl of DMSO treatment for normalization and calculating IC50 values. The treated cells were incubated at 37° C. and 5% CO2 for an additional forty-two hours. Following incubation, the growth medium was removed and 50 μl of BrightGlo luminescence reagent (Promega) was added to each well of the 96-well assay plates. The plates were placed on an orbital shaker for 5 min and then luminescence was quantified on the Victor3 (Perkin Elmer) plate reader. Readings were normalized to DMSO only treated cells, and normalized activities were utilized for IC50 calculations using the dose-response log (inhibitor) vs. response -variable slope (four parameters) nonlinear regression feature available in GraphPad Prism 5.0 or 6.0.

SMILES | EC50 [1] [nM] | IC50 [2] [nM]
CCCC(=O)Nc1cncc(-c2cnc3[nH]nc(-c4nc5c(-c6ccncc6)ccnc5[nH]4)c3c2)c1 [Compound 102, N-(5-(3-(7-(Pyridin-4-yl)-3H-imidazo[4,5-b]pyridin-2-yl)-1H-pyrazolo[3,4-b]pyridin-5-yl)pyridin-3-yl)butyramide] | ≥ 9990 | 2380
Fc1cccc(-c2ccnc3[nH]c(-c4n[nH]c5ncc(C6CCNCC6)cc45)nc23)c1 [Compound 909, 3-(7-(3-Fluorophenyl)-3H-imidazo[4,5-b]pyridin-2-yl)-5-(piperidin-4-yl)-1H-pyrazolo[3,4-b]pyridine] | ≥ 9990 | > 10000
Cc1ccc(-c2ccnc3[nH]c(-c4n[nH]c5ncc(-c6cncc(NC(=O)C7CCCC7)c6)cc45)nc23)s1 [Compound 357, N-(5-(3-(7-(5-Methylthiophen-2-yl)-3H-imidazo[4,5-b]pyridin-2-yl)-1H-pyrazolo[3,4-b]pyridin-5-yl)pyridin-3-yl)cyclopentanecarboxamide] | 1390 | 8
Cn1cc(-c2cnc3[nH]nc(-c4nc5c(-c6cccc(F)c6)ccnc5[nH]4)c3c2)cn1 [Compound 912, 3-(7-(3-Fluorophenyl)-3H-imidazo[4,5-b]pyridin-2-yl)-5-(1-methyl-1H-pyrazol-4-yl)-1H-pyrazolo[3,4-b]pyridine] | 118 | 221
Fc1cccc(-c2ccnc3[nH]c(-c4n[nH]c5ncc(-c6cnccn6)cc45)nc23)c1 [Compound 926, 3-(7-(3-Fluorophenyl)-3H-imidazo[4,5-b]pyridin-2-yl)-5-(pyrazin-2-yl)-1H-pyrazolo[3,4-b]pyridine] | 13 | > 10000
CCNCc1cncc(-c2cnc3[nH]nc(-c4nc5c(-c6ccoc6)ccnc5[nH]4)c3c2)c1 [Compound 264, N-((5-(3-(7-(Furan-3-yl)-3H-imidazo[4,5-b]pyridin-2-yl)-1H-pyrazolo [3,4-b]pyridin-5-yl)pyridin-3-yl)methyl)ethanamine] | ≤ 9 | > 10000
Fc1cccc(-c2ccnc3[nH]c(-c4n[nH]c5ncc(C6=CCNCC6)cc45)nc23)c1 [Compound 910, 3-(7-(3-Fluorophenyl)-3H-imidazo[4,5-b]pyridin-2-yl)-5-(1,2,3,6-tetrahydropyridin-4-yl)-1H-pyrazolo[3,4-b]pyridine] | ≥ 9990 | > 10000
CN(C)c1cncc(-c2cnc3[nH]nc(-c4nc5c(N6CCCCC6)ccnc5[nH]4)c3c2)c1 [Compound 139, N,N-Dimethyl-5-(3-(7-(piperidin-1-yl)-3H-imidazo[4,5-b]pyridin-2-yl)-1H-pyrazolo[3,4-b]pyridin-5-yl)pyridin-3-amine] | ≥ 9990 | 384
Fc1cccc(-c2ccnc3[nH]c(-c4n[nH]c5ncc(-c6ccncc6)cc45)nc23)c1 [Compound 924, 3-(7-(3-Fluorophenyl)-3H-imidazo[4,5-b]pyridin-2-yl)-5-(pyridin-4-yl)-1H-pyrazolo[3,4-b]pyridine] | ≥ 9990 | > 10000
c1ccc(-c2ccnc3[nH]c(-c4n[nH]c5ncc(-c6cncc(CNCC7CCCC7)c6)cc45)nc23)nc1 [Compound 130, 1-Cyclopentyl-N-((5-(3-(7-(pyridin-2-yl)-3H-imidazo[4,5-b]pyridin-2-yl)-1H-pyrazolo[3,4-b]pyridin-5-yl)pyridin-3-yl)methyl)methanamine] | ≤ 9 | 633
Cc1ccc(-c2ccnc3[nH]c(-c4n[nH]c5ncc(-c6cncc(CN7CCCCC7)c6)cc45)nc23)s1 [Compound 351, 3-(7-(5-Methylthiophen-2-yl)-3H-imidazo[4,5-b]pyridin-2-yl)-5-(5-(piperidin-1-ylmethyl)pyridin-3-yl)-1H-pyrazolo[3,4-b]pyridine] | ≥ 9990 | > 10000
CCNCc1cncc(-c2cnc3[nH]nc(-c4nc5c(-c6ccccn6)ccnc5[nH]4)c3c2)c1 [Compound 114, N-((5-(3-(7-(Pyridin-2-yl)-3H-imidazo[4,5-b]pyridin-2-yl)-1H-pyrazolo[3,4-b]pyridin-5-yl)pyridin-3-yl)methyl)ethanamine] | ≥ 9990 | > 10000
CC(C)CC(=O)Nc1cncc(-c2cnc3[nH]nc(-c4nc5c(-c6ccc(F)s6)ccnc5[nH]4)c3c2)c1 [Compound 312, N-(5-(3-(7-(5-Fluorothiophen-2-yl)-3H-imidazo[4,5-b]pyridin-2-yl)-1H-pyrazolo[3,4-b]pyridin-5-yl)pyridin-3-yl)-3-methylbutanamide] | 189 | 27
CN(C)CC(=O)Nc1cncc(-c2cnc3[nH]nc(-c4nc5c(-c6cccc(F)c6)ccnc5[nH]4)c3c2)c1 [Compound 1409, 2-(Dimethylamino)-N-(5-(3-(7-(3-fluorophenyl)-3H-imidazo[4,5-b]pyridin-2-yl)-1H-pyrazolo[3,4-b]pyridin-5-yl)pyridin-3-yl)acetamide] | ≤ 9 | 3990
CN(C)Cc1cncc(-c2cnc3[nH]nc(-c4nc5c(-c6cccs6)ccnc5[nH]4)c3c2)c1 [Compound 297, N,N-Dimethyl-1-(5-(3-(7-(thiophen-2-yl)-3H-imidazo[4,5-b]pyridin-2-yl)-1H-pyrazolo[3,4-b]pyridin-5-yl)pyridin-3-yl)methanamine] | ≥ 9990 | > 10000
CN(C)CCOc1cncc(-c2cnc3[nH]nc(-c4nc5c(-c6cccc(F)c6)ccnc5[nH]4)c3c2)c1 [Compound 919, 2-((5-(3-(7-(3-Fluorophenyl)-3H-imidazo[4,5-b]pyridin-2-yl)-1H-pyrazolo [3,4-b]pyridin-5-yl)pyridin-3-yl)oxy)-N,N-dimethylethan-1-amine] | ≤ 9 | > 10000
CS(=O)(=O)NCc1cc(F)cc(-c2ccnc3[nH]c(-c4n[nH]c5ncc(-c6cncnc6)cc45)nc23)c1 [Compound 414, N-(3-Fluoro-5-(2-(5-(pyrimidin-5-yl)-1H-pyrazolo[3,4-b]pyridin-3-yl)-3H-imidazo[4,5-b]pyridin-7-yl)benzyl)methanesulfonamide] | ≥ 9990 | > 10000
O=C(Nc1cncc(-c2cnc3[nH]nc(-c4nc5cccnc5[nH]4)c3c2)c1)C1CCCCC1 [Compound 228, N-(5-(3-(3H-Imidazo[4,5-b]pyridin-2-yl)-1H-pyrazolo[3,4-b]pyridin-5-yl)pyridin-3-yl)cyclohexanecarboxamide] | ≤ 9 | > 10000
c1cncc(-c2ccnc3[nH]c(-c4n[nH]c5ncc(-c6cncc(CN7CCCCC7)c6)cc45)nc23)c1 [Compound 78, 5-(5-(Piperidin-1-ylmethyl)pyridin-3-yl)-3-(7-(pyridin-3-yl)-3H-imidazo[4,5-b]pyridin-2-yl)-1H-pyrazolo[3,4-b]pyridine] | ≥ 9990 | > 10000
